Here are results for 14 molecules from US7951906B2, “Compounds capable of interacting with a cell-surface fibroblast growth factor receptor” (Enkam Pharmaceuticals A/S, priority 2002, dated 2011).

Assay [1] has as its system hippocampal neurons. As to the kind of experiment: Neurite outgrowth from hippocampal neurons. The class given is cell-based, rat. Conditions: for retained stimulatory effect relative to the entire (non-mutated) FG loop peptide: peptides 50 μM; for stimulation of neurite outgrowth / length of neurites: 24 h, 5 μM F3 module 2. The protocol: Dissociated neurons from embryonic rat hippocampus (embryonic day 19), prepared as described (Skladchikova et al., 1999), were grown on Permanox plastic (Nunc) for 24 h at a density of 6000 cells/cm^2, at 37° C., 5% CO2 in Neurobasal medium containing 20 mM Hepes, 100 U/ml penicillin, 100 μg/ml streptomycin, 0.4% BSA supplemented with B27 (Gibco BRL) and the below specified compounds. After 24 h, cells were fixed with paraformaldehyde, stained with Coomassie Brilliant Blue R250 and the length of neurites was measured as described (Skladchikova et al, 1999).

For assay [2], the target named is T1, FGFR1 Ig modules 2, 3 (Mus musculus, UniProt P16092).
T1 construct: amino acids 249-365 and 141-365 of FGFR (swissprot p16092), respectively; made in house; host or cells: Drosophila S2 cells
T1 sequence (P16092 141-365): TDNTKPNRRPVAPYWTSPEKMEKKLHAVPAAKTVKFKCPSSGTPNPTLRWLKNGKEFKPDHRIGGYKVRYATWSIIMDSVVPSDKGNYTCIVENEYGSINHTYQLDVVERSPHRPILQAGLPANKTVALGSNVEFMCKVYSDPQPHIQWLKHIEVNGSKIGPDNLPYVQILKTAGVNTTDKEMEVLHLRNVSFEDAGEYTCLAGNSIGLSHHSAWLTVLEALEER
In words: SPR binding to immobilized FGFR Ig modules 2, 3. The note with it: for coefficient of dissociation: immobilized FGFR modules 2, 3. An excerpt: The NCAM F3 modules 1, 2 (without expression of exons a, AAG), and FGFR1 Ig modules 2, 3 were produced using rat NCAM cDNA and mouse FGFR1 (IIIC iso-form) cDNA. The F3 module 1 and the combined F3 modules 1, 2 consist of […] (SEQ ID NO:173) and amino acids 507-611 and 507-705 of NCAM (swissprot p13596), respectively. […] The FGFR Ig module 2 consists of […] […] The FGFR Ig module 3 and the combined Ig modules 2, 3 consist of […] (SEQ ID NO:174) and amino acids 249-365 and 141-365 of FGFR (swissprot p16092), respectively. […] All the proteins were purified by affinity chromatography using Ni2^+−NTA resin (Qiagen, USA) and/or ion exchange chromatography and gel filtration. ^15N-labelled F3 module 2 was produced as described (Thomsen et al., 1996). The NCAM Ig modules 1, 2 and 3 (RV and amino acids 20-308 of rat NCAM, swissprot p13596) was produced as described (Soroka et al., 2002).
The flow-rate was 5 μl/min. […] The FGFR Ig modules 2, 3 were immobilized on a sensor chip CM5 using amine coupling kit (Biosensor AB) as follows: 1) the two halves of the chip (designated Fc1 and Fc2) were activated by 20 μl activation solution; 2) the protein was immobilized on Fc1 using 12 μl 20 μg/ml protein in 10 mM sodium phosphate buffer pH 6.0; 3) Fc1 and Fc2 were blocked by 35 μl blocking solution. […] The resulting curve was used for analysis.
A general note: In SPR one partner is held on a chip, and binding of the other changes the refractive index at the surface.

The target in assay [3] is T2, human FGFR1 (Homo sapiens, UniProt P11362).
T2 construct: expressed in transfected cells; host or cells: TREX-293 cells (Invitrogen), Flp-In system
In words: FGFR1 phosphorylation, Assay 1 (TREX-293 cells, StrepII-tagged FGFR1). Format: cell-based. The note with it: 20 min, 5 μM F3 module, 2.5 μM dendrimeric FG loop peptide. The protocol:
Assay 1: TREX-293 cells (Invitrogen) were stably transfected with human FGFR1 having a C-terminal StrepII-tag (IBA biotech), using the Flp-In system (Invitrogen). For the study of phosphorylation: ˜2×10^7 cells were starved overnight before stimulation for 20 min with the specified compounds. Cells were lysed in PBS with 1% NP-40 and phosphatase inhibitors cocktail set II (Calbiochem). The cleared cell lysates were incubated with 50 μl agarose-coupled anti-phosphotyrosine antibodies (4G10-AC, Upstate Biotechnologies) for 3 hrs at 4° C. Care was taken to calibrate the amount of cells employed, so that considerable increases in phosphorylated FGFR could be detected. The bound protein was washed, eluted using 150 mM phenyl phosphate (Sigma), precipitated by 12% trichloroacetic acid, washed in cold acetone and dissolved in SDS-PAGE sample buffer. Immunoblotting was performed using antibodies against the recombinant StrepII-tag (IBA biotech). For immunoprecipitation: ˜1×10^7 cells were transiently transfected with the 180 kDa NCAM isoform or a control vector. Cells were incubated for 24 h and then starved overnight. After lysis, FGFR was purified on a StrepTactin Minicolumn (IBA Biotech) according to the manufacturer's instructions, and analyzed by immunoblotting with polyclonal antibodies against human NCAM.

Assay [4] has as its system polyclonal antibody raised against the intact FGL-peptide. As to the kind of experiment: Competitive ELISA of immunoreactivity with antibody raised against FGL-peptide. The class given is binding. The note with it: rabbit serum. An excerpt: Antibody specifically recognising an epitope comprising SEQ ID NO: 1 (FGL-peptide) were raised in rabbits according the standard procedure (Gill B M, Barbosa J A, Dinh T Q, Garrod S, O'Connor D T: Chromogranin B: isolation from pheochromocytoma, N-terminal sequence, tissue distribution and secretory vesicle processing. Regul Peptides 33:223-35, 1991). Synthetic FGL-peptide was coupled to a carrier protein, KLH (Keyhole Limpets Hemocyanin). The peptide was mixed with Freunds incomplete adjuvant and the mixture was injected into rabbits. 208 μg peptide was used per immunisation (per rabbit).
Antibodies (serum) were tested for specificity by competitive ELISA using a series FGL-peptide truncated variants according to the protocol described in R. J. Jenny, T. L. Messier, L. A. Ouellette, and W. R. Church, Methods Enzymol. 222, 400 (1993). 100% immunoreactivity was ob-served only with the intact FGL-peptide consisting of SEQ ID NO: 1.
A general note: ELISA stands for enzyme-linked immunosorbent assay.

Positions of bridges follow the written chain, without caps; N, C: chain ends. Chains are numbered I, II in the order given. No end group written: not given here.

T2 sequence (P11362 22-822): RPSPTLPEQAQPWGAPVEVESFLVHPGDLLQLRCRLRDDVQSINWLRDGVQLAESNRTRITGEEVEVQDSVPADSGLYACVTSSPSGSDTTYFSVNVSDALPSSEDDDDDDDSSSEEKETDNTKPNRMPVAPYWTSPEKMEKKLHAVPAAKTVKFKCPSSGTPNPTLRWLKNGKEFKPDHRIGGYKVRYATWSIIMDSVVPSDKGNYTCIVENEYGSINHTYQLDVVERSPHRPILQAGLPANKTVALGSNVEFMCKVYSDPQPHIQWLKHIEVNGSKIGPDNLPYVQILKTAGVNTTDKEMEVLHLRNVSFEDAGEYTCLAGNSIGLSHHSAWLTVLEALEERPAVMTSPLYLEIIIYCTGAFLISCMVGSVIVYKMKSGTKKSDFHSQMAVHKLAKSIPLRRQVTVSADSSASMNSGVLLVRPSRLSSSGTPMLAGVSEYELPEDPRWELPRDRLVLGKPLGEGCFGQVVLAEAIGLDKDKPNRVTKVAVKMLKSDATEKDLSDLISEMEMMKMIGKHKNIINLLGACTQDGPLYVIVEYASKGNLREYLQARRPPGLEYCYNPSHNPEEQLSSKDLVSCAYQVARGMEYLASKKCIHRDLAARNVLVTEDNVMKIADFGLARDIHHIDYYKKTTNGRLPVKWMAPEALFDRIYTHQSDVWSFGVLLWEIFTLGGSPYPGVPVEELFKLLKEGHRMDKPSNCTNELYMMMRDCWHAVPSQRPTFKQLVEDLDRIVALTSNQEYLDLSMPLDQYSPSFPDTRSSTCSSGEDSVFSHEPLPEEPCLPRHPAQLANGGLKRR

As to `Nc1ncnc2c1ncn2[C@@H]1O[C@H](COP(=O)(O)OP(=O)(O)CP(=O)(O)O)[C@@H](O)[C@H]1O` [AMP-PCP, reference compound], in assay [1] (5 μM F3 module, ATP or AMP-PCP 0.4, 1.0 mM), the “inhibition of the neuritogenic effect induced by the F3 module 2” value is listed as “complete inhibition”. Further, the “inhibition of the neuritogenic effect induced by the FG loop peptide” value in assay [1] (50 μM peptide, ATP or AMP-PCP 0.4, 1.0 mM) is “complete inhibition”. `Cc1c[nH]c(/C=C2\C(=O)Nc3ccccc32)c1CCC(=O)O` [SU54402, reference compound]: the “block of neurite outgrowth stimulation by the EF loop peptide” value in assay [1] (hippocampal neurons) was “specifically blocked”. Turning to “I: EVYVVAENQQGKSKAKK / II: EVYVVAENQQGKSKAK / III: EVYVVAENQQGKSKA / IV: EVYVVAENQQGKSKA (amide I:16-IV:C, I:17-II:C, II:16-III:C (inferred)) [dendrimeric FG loop peptide]”, the coefficient of dissociation in assay [2] is 3.97±2.29×10^−3 s^−1. Besides, the kon in assay [2] (immobilized FGFR modules 2, 3, read-out: coefficient of association) was determined as 2070 ± 1.08e+06 M⁻¹ s⁻¹. Moreover, the “FGFR phosphorylation compared to the non-stimulated cells” value in assay [3] is “substantially increase”.

For “SEQ ID NO:151: truncated version of the FG loop peptide, residues A^77-K^83 of the NCAM F3 module 2 (AENQQGK; NCAM Fn III, 2 [Swiss-Prot P13591] FGFR binding motif (Variant))”, in assay [1] (hippocampal neurons, neurite length versus concentration), the “neurite outgrowth in dose-response study” value is “induced neurite outgrowth with a bell-shaped curve”. In assay [1] (hippocampal neurons), the “retained stimulatory effect relative to the entire (non-mutated) FG loop peptide” value is listed as “approximately 50%”. In the case of “SEQ ID NO:171: 11-amino acid fragment of SEQ ID NO: 5 (axonal-associated cell adhesion molecule), two amino acids truncated from the C-terminus (VAENSRGKNVA; Axonal-associated cell adhesion molecule [NCBI NP_446331] FGFR binding motif)”, in assay [1] (hippocampal neurons), the “stimulation of neurite outgrowth / length of neurites” value was “capable of stimulation of neurite outgrowth”. In assay [1] (hippocampal neurons, neurite outgrowth), the “concentration of the peptide at maximal effect” value is on record as “about 0.3 μg/ml”.

Consider “TIMGLKPETRYAVR (FIII,1 domain of NCAM (Swiss-Prot P13591) FGFR binding motif) [EF loop peptide, peptide corresponding to residues T^573-R^586 of the NCAM F3 module 1]”, for which, in assay [2], the “binding to the immobilized FGFR modules” value is recorded as “cannot be detected”. Further, the “stimulation of neurite outgrowth / length of neurites” value in assay [1] (hippocampal neurons) is “stimulate the neurite outgrowth significantly”.

In the case of “YKK: the FG loop peptide in which Y^74, K^83 and K^85 were substituted with alanine (EVAVVAENQQGASAA)”, the “inhibition of the stimulatory effect of the peptide by ATP” value in assay [1] (50 μM peptide, ATP 0.4, 1.0 mM) is “could no longer be inhibited”. In assay [1] (hippocampal neurons), the “stimulation of neurite outgrowth / length of neurites” value is “retained its neuritogenic potency” and the “retained stimulatory effect relative to the entire (non-mutated) FG loop peptide” value is given as “about 60%”. For the molecule “dendrimeric EF loop peptide: four peptide sequences of SEQ ID NO: 9 connected to a three-lysine backbone through their C-termini (TIMGLKPETRYAVR; also: four copies linked via C-termini to three-lysine dendrimer backbone)”, the “binding to the immobilized FGFR modules” value in assay [2] is on record as “real-time binding”.

“nonamer V^76-S^84: truncated version of the FG loop peptide, residues V^76-S^84 (VAENQQGKS; NCAM Fn III, 2 [Swiss-Prot P13591] FGFR binding motif (Variant))”: in assay [1] (hippocampal neurons), the “retained stimulatory effect relative to the entire (non-mutated) FG loop peptide” value is reported as “approximately 50%”. With “peptide derived from FGF2: peptide from a loop region in FGF2 similar to the heptameric NCAM peptide (AMKEDGR; FGF2)”, the “stimulation of neurite outgrowth / length of neurites” value in assay [1] (hippocampal neurons) was “to the same extent as the similar NCAM peptide”. Consider “t1: truncated FGL-peptide lacking the three N-terminal amino acids (VVAENQQGKSKA; NCAM Fn III, 2 [Swiss-Prot P13591] FGFR binding motif (variant))”, for which the immunoreactivity in assay [4] is reported as 40%.

In turn, “t4: truncated FGL-peptide lacking the three C-terminal amino acids (EVYVVAENQQGK; NCAM Fn III, 2 [Swiss-Prot P13591] FGFR binding motif (variant))” came in with an immunoreactivity in assay [4] of 80%.

B1: NCAM F3 modules 1, 2: recombinant protein: AGHHHHHH and amino acids 507-705 of rat NCAM (swissprot p13596) (protein)
chain: AGHHHHHHQADTPSSPSIDRVEPYSSTAQVQFDEPEATGGVPILKYKAEWKSLGEEAWHSKWYDAKEANMEGIVTIMGLKPETRYAVRLAALNGKGLGEISAATEFKTQPVREPSAPKLEGQMGEDGNSIKVNLIKQDDGGSPIRHYLVKYRALASEWKPEIRLPSGSDHVMLKSLDWNAEYEVYVVAENQQGKSKAAHFVFRTSAQ
For the molecule B1, in assay [2], the “binding to the immobilized FGFR modules” value is “binds” and the coefficient of dissociation is reported as 5.56±0.07×10^−3 s^−1.

B2: NCAM Ig modules 1, 2 and 3: control protein: RV and amino acids 20-308 of rat NCAM, swissprot p13596 (protein)
chain: RVLQVDIVPSQGEISVGESKFFLCQVAGDAKDKDISWFSPNGEKLSPNQQRISVVWNDDDSSTLTIYNANIDDAGIYKCVVTAEDGTQSEATVNVKIFQKLMFKNAPTPQEFKEGEDAVIVCDVVSSLPPTIIWKHKGRDVILKKDVRFIVLSNNYLQIRGIKKTDEGTYRCEGRILARGEINFKDIQVIVNVPPTVQARQSIVNATANLGQSVTLVCDADGFPEPTMSWTKDGEPIENEEEDDEKHIFSDDSSELTIRNVDKNDEAEYVCIAENKAGEQDASIHLKVFAK
Consider B2, for which, in assay [2], the “binding to the immobilized FGFR modules” value is on record as “does not bind”.
